Reference: US6410545B1, “Lipid lowering quinazoline dietary supplement composition” (Parker Hughes Institute, priority 1998, dated 2002)

Legend:
[1] = test system: apo e−/− mice; test: Serum total cholesterol in apolipoprotein E deficient mice; format: in vivo; conditions: for Mean serum total cholesterol: apo e−/− mice, 8 mg/kg/day, one week
Method: Three- to four-week old apolipoprotein E deficient (apo E^−/−) mice were the progeny of breeding pairs of apo E knockout (apo EKO) mice obtained from Jackson Labs. (Bar Harbor, Me., USA). Mice were fed either regular rodent chow (5% fat and 0% cholesterol) (Teklad-LM 485, Harlan Teklad, Madison, Wis., USA), the Paigen's cocoa butter diet, or the Western diet (21.22% fat and 0.2% cholesterol) (Harlan Teklad, Madison, Wis., USA) for two weeks prior to treatment.
(§1) Animals were treated with test compounds by intraperitoneal injection daily for 7 days. A range of doses was administered. Control animals received vehicle alone. The effect of quinazoline derivatives on total cholesterol, LDL, HDL, liver enzymes, and glucose was analyzed. The mice tissues were also examined histologically.
Serum total cholesterol was measured enzymatically using the cholesterol kit from Sigma Chemical Co. (St. Louis, Mo., USA). For liver tissue lipid measurements, lipids were extracted from homogenized hepatic tissues using the method of Bligh and Dyer (Bligh, et al., Can. J. Biochem. Phys. 1959, 37:911-917). One gram of liver tissue was homogenized in 1 ml of distilled water and extracted with 4 ml of chloroform/methanol (1:1, v/v). The chloroform phase containing the lipids was evaporated under a stream of nitrogen, the lipids dissolved in 100 μL of isopropanol, and subjected to cholesterol determination as described above. Triglyceride (TG) contents were determined using the TG kit from Sigma Chemical Co.
On regular rodent chow, the serum total cholesterol level of apo e^−/− mice was 836±57 mg/dL (n=47). After one week therapy with 8 mg/kg/day WHI-P164 (n=12), the mean serum total cholesterol level was reduced to 551±29 mg/dL (p=0.02).
When challenged with a cholesterol-rich diet, these animals developed frank hypercholesterolemia due to delayed clearance of intestinal chylomicrons which shuttle the dietary cholesterol from the intestine to the liver. In the present study, all of the 46 ApoE-deficient mice that were fed Western diet (14) became severely hypercholesterolemic with a mean serum total cholesterol level of 1491±59 mg/dL. One week WHI-P164 therapy reduced the mean serum total cholesterol level of hypercholesterolemic apo e^−/− mice to 1194±84 mg/dL (p=O.006) at a dose level of 8 mg/kg/day (n=19) and to 876±57 mg/dL (p<0.0001) at a dose level of 40 mg/kg/day (n=17) (Table 3).

[2] = test system: apo e−/− mice; test: Blood chemistry and histopathology of treated apo e−/− mice; format: in vivo; conditions: 8 mg/kg/day or 40 mg/kg/day
Method: as §1
Serum levels alanine aminotransferase (ALT), alkaline phosphatase (ALP), lactate dehydrogenase (LDH), blood urea nitrogen (BUN), creatinine, creatinine phosphokinase (CPK), and glucose were determined by using a Synchron CX5 Clinical System (Beckman Instruments, Inc., Fullerton, Calif.) following manufacturer's instructions. For the glucose tolerance test, blood glucose levels were determined using the portable One Touch Profile glucose meter (Lifescan, Milpitas, Calif., USA).
At the end of the experiment, the animals were sacrificed and the harvested tissues were fixed in 10% phosphate buffered formalin overnight, embedded, sectioned, and stained by hematoxylin and eosin (H&E). The stained sections were examined for pathological changes. For Oil Red O staining, the liver was excised and snap frozen in liquid nitrogen. Five micrometer thick sections were obtained using the LeicaCM1800 cryostat (Heerbrugg, Switzerland), stained in 0.5% Oil Red O in propylene glycol for 1 hour, destained in 85% propylene glycol for 1 minute, rinsed twice in distilled water, counterstained in Mayer's hematoxylin for a few seconds, rinsed twice in distilled water, and mounted in Crystalmount (Biomedia Corp., Foster City, Calif.). The Oil Red O stainable material at 400 X magnification was quantitated using the ImagePro plus program (Media Cybernetics, Silver Spring, Md., USA) in conjunction with a 3CCD camera (DAGE-MTI Inc., Michigan City, USA).

[3] = test system: apo e−/− mice; test: Regression of pre-existing atherosclerotic lesions (Sudan IV stained aortas) in apo e−/− mice; format: in vivo; conditions: apo e−/− mice 7 months on Western diet, 40mg/kg/day for one month
Text: Aortas from untreated (FIG. 6A), vehicle treated (FIG. 6B), and WHI-P164 treated (FIG. 6C) animals were stained with Sudan IV to show the fatty streaks. Aortas of untreated control mice were obtained at 7 months to reflect the pretreatment condition of the test groups. Aortas of vehichle treated or WHI-P164 treated test mice were obtained at 8 months following a one month treatment program. Statistical comparisons indicate **p=0.002 for untreated controls versus WHI-P164 treated test mice and p=0.007 for vehicle controls versus WHI-P164 treated mice.
The effectiveness of WHI-P164 against pre-existing atherosclerotic lesions in apo e^−/− mice kept 7 months on high fat Western diet was examined. apo e^−/− mice were treated with either vehicle control or WHI-P164 at 40mg/kg/day for one month. […] Treatment with WHI-P164 caused a marked regression of the atherosclerotic lesions with fatty streaks covering only 23±2% (n=7) of the aortic surface (FIG. 6B), as compared to 40±5% in untreated mice (n=3) (FIG. 6A) (p=0.002) and 40±5% in the vehicle-treated mice (n=8) (FIG. 6C) (p=0.007).

[4] = test system: apo e−/− mice; test: In vivo hepatic VLDL-TG production using Triton WR1339 in apo e−/− mice
Method: C57B⅙ and apoE-deficient mice were treated with intraperitoneal injections of 50 μl vehicle or 40 mg/kg WHI-P164 in 50 μl vehicle for 7 consecutive days, followed by a 36 hour fast to shut down intestinal chylomicron synthesis. […] Blood samples were taken at 0 and 4 hours after Triton WR1339 injection and plasma TG levels were measured enzymatically using a commercially available enzymatic kit (Sigma Chemical Co.). Alternatively, food was returned to the mice after a 36 hour fast and blood samples were collected at 0, 1, 3, 6, and 9 hours after returning the food. Accumulation of chylomicron-TG was determined as accumulation of plasma TG.
To determine if WHI-P164 prevent hepatic TG accumulation by relieving 9 block in VLDL-TG secretion or by inhibiting upstream TG synthesis, in vivo hepatic VLDL-TG synthesis was analyzed. Synthesis was determined by following the accumulation of VLDL-TG after shutting down VLDL catabolism with Triton WR1339 injection and intestinal chylomicron synthesis with a 36 hours fast.
C57B⅙ and apoE-deficient mice were treated with intra peritoneal injections of vehicle or 40 mg/kg WHI-P164 (in 50 μl vehicle) for 7 consecutive days, followed by a 36 hour fast to shut down intestinal chylomicron synthesis. […] Blood samples (50 μl) were taken at 0 and 4 hours after Triton WR1339 injection and plasma TG was measured enzymatically using a commercially available enzymatic kit (Sigma Chemical Co.), as previously reported (Kuipers, supra).

For `COc1cc2ncnc(C(=O)c3cccc(Br)c3)c2cc1OC` [WHI-P164, 4-(3′-bromobenzoyl)-6,7-dimethoxyquinazoline], the Serum total cholesterol ([1]; apo e−/− (C57B1/6) mice, Western diet two weeks, then drug 1 week at 40 mg/kg/day, 40 mg/kg/day) was 876 ± 57 mg/dL, the “Mean serum total cholesterol” value ([1]; Western diet) was 1194 ± 84 mg/dL and the “Mean serum total cholesterol” value ([1]; regular rodent chow) was 551 ± 29 mg/dL. The “Reduction of total cholesterol levels” value ([1]; hypercholesterolemic apo e−/− mice) was 41%, the “Clinical or laboratory signs of toxicity” value [2] was “not associated with any obvious clinical or laboratory signs of toxicity” and the “Histopathologic examination of tissues” value [2] was “did not reveal any drug related toxic lesions”. The “Liver enzymes (ALT, AST, ALP, LDH), CPK levels, and BUN/Creatinine” value [2] was “remained within normal limits”, the “Aortic surface covered by fatty streaks stainable by Sudan IV” value [3] was 23±2% and the “Triglyceride, Pre-Triton WR 1339” value ([4]; apo e−/− (C57B1/6), 40 mg/kg i.p. 7 days, 36 hour fast) was 155 ± 14 (n = 10) mg/dL. The “Triglyceride, Post-Triton WR 1339” value ([4]; apo e−/− (C57B1/6), 40 mg/kg i.p. 7 days, 36 hour fast, 4 hours after Triton WR1339) was 465 ± 46 (n = 8) mg/dL and the “Accumulation of VLDL-TG after Triton WR1339 treatment” value ([4]; apo e−/− mice, 40 mg/kg, versus vehicle) was “significantly less accumulation of VLDL-TG than vehicle-treated control mice”.
